Assay [1] concerns the target DENV-2 NS5-RdRp (Dengue virus type 2, UniProt P14340). The assay is classed as biochemical. Conditions: 50 μM.
In assay [2] the target is human RNA N7-methyltransferase (RNMT) (Homo sapiens, UniProt O43148). Description: biochemical.
Sequence of human RNA N7-methyltransferase (RNMT) (O43148 whole entry, looked up): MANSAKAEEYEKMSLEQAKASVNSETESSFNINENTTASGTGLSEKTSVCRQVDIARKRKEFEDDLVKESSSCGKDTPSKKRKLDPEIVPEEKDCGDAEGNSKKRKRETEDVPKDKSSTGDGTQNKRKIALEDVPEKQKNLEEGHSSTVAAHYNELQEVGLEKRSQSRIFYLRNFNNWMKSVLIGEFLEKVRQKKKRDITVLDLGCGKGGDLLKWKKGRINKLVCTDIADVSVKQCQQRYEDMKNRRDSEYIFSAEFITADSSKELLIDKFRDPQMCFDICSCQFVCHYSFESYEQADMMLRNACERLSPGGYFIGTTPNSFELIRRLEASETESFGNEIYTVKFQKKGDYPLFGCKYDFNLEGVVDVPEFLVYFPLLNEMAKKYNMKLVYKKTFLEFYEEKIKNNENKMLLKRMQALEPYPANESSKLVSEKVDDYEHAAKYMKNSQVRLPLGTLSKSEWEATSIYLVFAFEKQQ

Regarding `Nc1ncnc2c1ncn2[C@@H]1O[C@H](C[C@@H](N)CC[C@H](N)C(=O)O)[C@@H](O)[C@H]1O` [Sinefungin], the “Inhibition of RdRp activity of DENV NS5 (in words)” value in assay [1] is given as “no inhibition detected”. In assay [2], this molecule yielded an IC50 of less than 50 nM.
